The results in this text go back to patent publication EP0687253B1, “4-AMINOPYRIDINES, PROCESS FOR PREPARING THE SAME AND MEDICAMENTS CONTAINING THE SAME” (BOEHRINGER MANNHEIM GMBH, priority 1993, dated 1994).

For one experiment, the target named is T1, humanem α-Thrombin (Homo sapiens, UniProt P00734).
T1 construct: humanem α-Thrombin (Sigma, spezifische Aktivität = 2150 NIH-units/mg); purchased Sigma
The experiment can be described thus: Thrombin inhibition, kinetic measurement with chromogenic substrate S-2238. The conditions noted are these: 0,1 M phosphate buffer, pH = 7.5, 25 °C, substrate H-(D)-Phe-Pro-Arg-pNA (S-2238). The format is biochemical. The protocol: Die kinetischen Messungen wurden in 0,1 M Phosphatpuffer, der 0.2 M Kochsalz und 0.5 % Polyethylenglycol 6000 enthielt. bei einem pH = 7.5 und 25 °C mit dem Substrat H-(D)-Phe-Pro-Arg-pNA (S-2238 Kabi) und humanem α-Thrombin (Sigma, spezifische Aktivität = 2150 NIH-units/mg) in Polystyrol-Halbmikroküvetten in einem Gesamtvolumen von 1 ml durchgeführt.
In einem Vorversuch wurde mit jeder Wirksubstanz bestimmt, ob sie Thrombin schnell oder langsam inhibiert. Dazu wurde die Reaktion einmal durch Zugabe von 0.03 NIH-units Thrombin zu einer 100 µM-Lösung des Substrats und des Wirkstoffs gestartet. In einem zweiten Versuch wurde Substrat zu einer 5 Min. inkubierten Lösung des Thrombins und des Wirkstoffs gegeben. Die Zunahme der Konzentration von p-Nitroanilin mit der Zeit wurde spektroskopisch (UV-VIS-Spektrophotometer Lambda-2 der Firma Perkin-Elmer) bei 405 nm 12 Min. verfolgt. Da die bei beiden Versuchen erhaltenen Messkurven linear und parallel waren, handelt es sich bei den Wirkstoffen der folgenden Tabelle um schnelle Thrombin-Inhibitoren. Die Inhibitionskonstanten Ki wurden dann wie folgt bestimmt. Das Substrat wurde in den Konzentrationen 100 µM, 50 µM. 30 µM, 20 µM eingesetzt und bei jeder Substratkonzentration eine Messung ohne Inhibitor und drei Messungen in Gegenwart unterschiedlicher Konzentrationen der in der folgenden Tabelle aufgeführten Inhibitoren durchgeführt. Die Reaktionen wurden durch Zugabe von Thrombin gestartet. Die Zunahme der Extinktion bei 405 nm durch das entstehende p-Nitroanilin über einen Zeitraum von 12 Min. verfolgt. Im Abstand von 20 Sek. wurden Meßpunkte (Zeit vs. Extinktion) auf einen PC übertragen. Aus den Daten wurden die Geschwindigkeiten Vo (Extinktionsänderung pro Sek.: Messungen ohne Inhibitor) und Vi (Messungen mit Inhibitor) durch lineare Regression bestimmt. Benutzt wurde nur der Teil jeder Messung. bei dem sich die Substratkonzentration um weniger als 15 % vermindert hatte. Aus einer Meßreihe (konstante Inhibitorkonzentration, variable Substratkonzentrationen) bestimmte man Km' und Vmax durch nichtlinearen Fit auf die Gleichung V =(Vmax ∗ [S])/([S] + Km ') [formula]
Aus den gesamten Meßreihen berechnete man schließlich Ki durch nichtlinearen Fit auf die Gleichung V =(Vmax ∗ [S])/(Km ∗ (1 + […] ) + [S]) [formula] Die Michaeliskonstante Km betrug in allen Messungen 3.8 ± 2 µM. Die Inhibitionskonstanten Ki der Wirksubstanzen sind in der folgenden Tabelle in der Einheit µM angegeben.

The next experiment relates to Pferdethrombin. The experiment can be described thus: Thrombin time (clotting of human citrate plasma with thrombin reagent, ball coagulometer). It counts as biochemical, Pferd. The conditions noted are these: thrombin time as difference to control (control ca. 24 Sek.), test stopped at 5 Min.; for TT2.5: 2.5 µM in final volume; for TT25: 25 µM in final volume; for TT250: 250 µM in final volume. As to the method: Ein in der klinischen Gerinnungsdiagnostik gebräuchlicher Test ist die Thrombinzeit. Dieser Parameter erfaßt die Thrombinwirkung auf Fibrinogen und die Gerinnselbildung. Inhibitoren von Thrombin bewirken eine Verlängerung der Thrombinzeit.
Zur Plasmagewinnung wurden 9 Teile frisches Blut gesunder Spender mit einem Teil Natriumcitratlösung (0.11 Mol/l) gemischt und bei ca. 3000 U/min 10 Min. bei Raumtemperatur zentrifugiert. Das Plasma wurde abpipettiert und kann bei Raumtemperatur ca. 8 h aufbewahrt werden.
200 µl Citratplasma wurden in einem Kugelkoagulometer (KC 10 der Firma Amelung) 2 Min. bei 37 °C inkubiert, Zu 190 µl vortemperiertem Thrombin-Reagenz (Boehringer Mannheim GmbH; enthält ca. 3 U/ml Pferdethrombin und 0.0125 M Ca^++) gab man 10 µl Dimethylsulfoxid (DMSO) oder eine Lösung der Wirksubstanz in DMSO. Mit Zugabe dieser 200 µl Lösung zum Plasma wurde eine Stoppuhr gestartet und der Zeitpunkt bis zum Eintritt der Gerinnung bestimmt. Die Thrombinzeit betrug bei den Kontrollmessungen ca. 24 Sek. und wurde durch die Wirksubstanzen deutlich verlängert. War die Thrombinzeit in Gegenwart einer Beispielverbindung länger als 5 Min.. wurde der Versuch abgebrochen.
In der folgenden Tabelle sind die gemessenen Thrombinzeiten in Sekunden als Differenz zur Kontrolle angegeben. Die Konzentrationen der Wirksubstanzen betrugen im Endvolumen 250 µM (TT250), 25 µM (TT25) und 2.5 µM (TT2.5).

`O=S(=O)(Nc1cccc(OCCNc2ccncc2)c1)c1cccc2ccccc12` [Beispiel 2, N-{3-[2-(Pyridin-4-ylamino)-ethoxy]-phenyl}-1-naphthalin-sulfonamid] gave a Ki at humanem α-Thrombin of 300 nM. In the experiment with Pferdethrombin, this compound gave a TT2.5 of 6 Sekunden, a TT25 of 40 Sekunden and a TT250 of 150 Sekunden.

Take `O=S(=O)(Nc1cccc(OCCNc2ccncc2)c1)C1CCCCC1` [Beispiel 8, N-{3-[2-(Pyridin-4-ylamino)-ethoxy]-phenyl}-cyclohexan-sulfonamid]: the Ki at humanem α-Thrombin was 1000 nM. In the experiment on Pferdethrombin, this compound yielded a TT2.5 of 13 Sekunden, a TT25 of 58 Sekunden and a TT250 of 288 Sekunden.

For `CC(CNc1ccncc1)Oc1cccc(NS(=O)(=O)c2ccccc2)c1` (centres unmarked) [Beispiel 10, N-{3-[1-Methyl-2-(pyridin-4-ylamino)-ethoxy]-phenyl}-benzolsulfonamid], affinity at humanem α-Thrombin was put at a Ki of 3000 nM. Further, in the experiment on Pferdethrombin, the TT2.5 came to 7 Sekunden, the TT25 was found to be 43 Sekunden and the TT250 is recorded as 157 Sekunden.

Consider `O=S(=O)(c1ccccc1)N(Cc1ccccc1)c1cccc(OCCNc2ccncc2)c1` [Beispiel 15, N-Benzyl-N-{3-[2-(pyridin-4-ylamino)-ethoxy]-phenyl}-benzolsulfonamid], for which the Ki on humanem α-Thrombin came to 130 nM. In the experiment with Pferdethrombin, this compound yielded a TT2.5 of 15 Sekunden, a TT25 of 144 Sekunden and a TT250 of 270 Sekunden.

In turn, `COc1ccc(OCCNc2ccncc2)cc1NS(=O)(=O)c1ccccc1` [Beispiel 59, N-{2-Methoxy-5-[2-(pyridin-4-ylamino)-ethoxy]-phenyl}-benzolsulfonamid] gave a Ki on humanem α-Thrombin of 6000 nM. In the experiment on Pferdethrombin, this compound had a TT2.5 of 0 Sekunden, a TT25 of 8 Sekunden and a TT250 of 53 Sekunden.

In the case of `Cc1ccc(OCCNc2ccncc2)cc1NS(=O)(=O)c1ccccc1` [Beispiel 60, N-{2-Methyl-5-[2-(pyridin-4-ylamino)-ethoxy]-phenyl}-benzolsulfonamid], on humanem α-Thrombin, the affinity corresponds to a Ki of 600 nM. Also, in the experiment on Pferdethrombin, the TT2.5 is recorded as 13 Sekunden, the TT25 came out at 62 Sekunden and the TT250 was 137 Sekunden.

Consider `Cc1cc(OCCN(C)c2ccncc2)cc(OS(=O)(=O)c2ccccc2Cl)c1` [Beispiel 72, 2-Chlorbenzolsulfonsäure-5-methyl-3-[2-(N-methyl-pyridin-4-ylamino)-ethoxy]-phenylester], for which the Ki at humanem α-Thrombin stood at 24 nM. In the experiment on Pferdethrombin, this compound gave a TT2.5 of 159 Sekunden, a TT25 of 300 Sekunden and a TT250 of 300 Sekunden.

At humanem α-Thrombin, `O=S(=O)(Nc1cc(NCCNc2ccncc2)cc(C(F)(F)F)c1)c1ccccc1` [Beispiel 79, N-{3-[2-(Pyridin-4-ylamino)-ethylamino]-5-trifluormethyl-phenyl}-benzolsulfonamid] had a Ki of 5000 nM. For the same compound, in the experiment on Pferdethrombin, the TT2.5 turned out to be 0 Sekunden, the TT25 is on record as 8 Sekunden and the TT250 is on record as 30 Sekunden.

At humanem α-Thrombin, `COc1cc(OCCNc2ccncc2)cc(S(=O)(=O)N(C)c2ccccc2)c1` [Beispiel 80, 3-Methoxy-N-methyl-N-phenyl-5-[2-(pyridin-4-ylamino)-ethoxy]-benzolsulfonamid] showed a Ki of 150 nM. Besides, in the experiment on Pferdethrombin, the TT2.5 amounted to 44 Sekunden, the TT25 was found to be 213 Sekunden and the TT250 is recorded as 300 Sekunden.

At humanem α-Thrombin, `COc1cc(OCCNc2ccncc2)cc(N(C)S(=O)(=O)c2ccccc2)c1` [Beispiel 83, N-Methyl-N-{3-[2-(pyridin-4-ylamino)-ethoxy]-5-methoxy-phenyl}-benzolsulfonamid] returned an inhibition constant Ki of 100 nM. In the experiment with Pferdethrombin, this compound registered a TT2.5 of 48 Sekunden, a TT25 of 192 Sekunden and a TT250 of 300 Sekunden.

For the compound `O=S(=O)(c1cc(Cl)cc(NCCNc2ccncc2)c1)N(Cc1ccccc1)c1ccccc1` [Beispiel 86, 3-Chlor-N-benzyl-N-phenyl-5-[2-(pyridin-4-ylamino)-ethylamino]-benzolsulfonamid], on humanem α-Thrombin, the affinity corresponds to a Ki of 40 nM. In the experiment on Pferdethrombin, this compound came in with a TT2.5 of 11 Sekunden, a TT25 of 167 Sekunden and a TT250 of 300 Sekunden.

The compound `O=S(=O)(Nc1cc(Br)cc(NCCNc2ccncc2)c1)c1ccccc1` [Beispiel 89, N-{3-[2-(Pyridin-4-ylamino)-ethylamino]-5-brom-phenyl}-benzolsulfonamid] returned a Ki on humanem α-Thrombin of 1000 nM. Moreover, in the experiment on Pferdethrombin, the TT2.5 was 6 Sekunden, the TT25 worked out at 38 Sekunden and the TT250 turned out to be 132 Sekunden.

`CCc1cc(OCCNc2ccncc2)cc(OS(=O)(=O)c2ccccc2)c1` [Beispiel 90, Benzolsulfonsäure-3-ethyl-5-[2-(pyridin-4-ylamino)-ethoxy]-phenyl-ester] returned a Ki at humanem α-Thrombin of 24 nM. In the experiment with Pferdethrombin, the TT2.5 was 125 Sekunden, the TT25 is reported as 300 Sekunden and the TT250 came out at 300 Sekunden.

With `Cc1cc(OCCNc2ccncc2)cc(N(CCN)S(=O)(=O)c2ccccc2)c1` [Beispiel 100, N-(2-Aminoethyl)-N-{3-[2-(pyridin-4-ylamino)-ethoxy]-5-methyl-phenyl}-benzolsulfonamid], the Ki at humanem α-Thrombin was 83 nM. In the experiment on Pferdethrombin, this compound yielded a TT2.5 of 186 Sekunden, a TT25 of 300 Sekunden and a TT250 of 300 Sekunden.

In turn, `Cc1cc(OCCNc2ccncc2)cc(N(CCCCCC(=O)O)S(=O)(=O)c2ccccc2)c1` [Beispiel 108, 6-(Benzolsulfonyl-{3-methyl-5-[2-(pyridin-4-yl-amino)-ethoxy]-phenyl}-amino)-hexansäure] showed a Ki at humanem α-Thrombin of 55 nM. In the experiment with Pferdethrombin, the TT2.5 was 62 Sekunden, the TT25 was determined as 300 Sekunden and the TT250 is listed as 300 Sekunden.

With `Cc1cc(OCCNc2ccncc2)cc(N(C)S(=O)(=O)c2ccccc2OCC(=O)O)c1` [Beispiel 124], on humanem α-Thrombin, the Ki came to 250 nM. In the experiment with Pferdethrombin, the TT2.5 was determined as 104 Sekunden, the TT25 was determined as 300 Sekunden and the TT250 was found to be 300 Sekunden.

As for `CCOC(=O)N(c1cc(C)cc(OCCNc2ccncc2)c1)S(=O)(=O)c1ccccc1OC` [Beispiel 125, N-Ethoxycarbonyl-N-{3-methyl-5-[2-(pyridin-4-ylamino)-ethoxy]-phenyl}-2-methoxybenzolsulfonamid], the affinity on humanem α-Thrombin, expressed as Ki, was 150 nM. In the experiment on Pferdethrombin, this compound displayed a TT2.5 of 73 Sekunden, a TT25 of 273 Sekunden and a TT250 of 300 Sekunden.
